Results taken from ChEMBL document CHEMBL1201862, “PubChem BioAssay data set” (2004).
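The compound was tested at five concentrations on cells cultured in 96-well plates, with a 48-hour exposure period. Abbreviation: GI50, concentration required for 50% inhibition of growth.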 Calls of active or inactive are those of the source. Rule as the data show it: active = GI50 up to about 1.1 µM and inactive = higher.

Columns and labels:
Assay in all cases: inhibition of tumour cell growth, NCI panel, 48 h
RXF 393 = system: RXF 393
MDA-MB-435 = system: MDA-MB-435
T47D = system: T47D
HCT-15 = system: HCT-15
UACC-62 = system: UACC-62
ACHN = system: ACHN
SF-268 = system: SF-268
NCI-H460 = system: NCI-H460
TK-10 = system: TK-10
MCF7 = system: MCF7
CCRF-CEM = system: CCRF-CEM
SK-OV-3 = system: SK-OV-3
UACC-257 = system: UACC-257
SNB-75 = system: SNB-75
SK-MEL-2 = system: SK-MEL-2
Hs-578T = system: Hs-578T
SK-MEL-28 = system: SK-MEL-28
EKVX = system: EKVX
SR = system: SR

Row | Compound | GI50 (RXF 393) | GI50 (MDA-MB-435) | GI50 (T47D) | GI50 (HCT-15) | GI50 (UACC-62) | GI50 (ACHN) | GI50 (SF-268) | GI50 (NCI-H460) | GI50 (TK-10) | GI50 (MCF7) | GI50 (CCRF-CEM) | GI50 (SK-OV-3) | GI50 (UACC-257) | GI50 (SNB-75) | GI50 (SK-MEL-2) | GI50 (Hs-578T) | GI50 (SK-MEL-28) | GI50 (EKVX) | GI50 (SR)
1 | Cc1ccc(NC(=O)/C(=N/N(C)C)C(C2OC(=O)c3ccccc32)[N+](=O)[O-])cc1 (configuration not stated) | > 100 µM (inactive) | > 100 µM (inactive) | > 100 µM (inactive) | > 100 µM | > 100 µM (inactive) | > 100 µM (inactive) | > 100 µM (inactive) | > 100 µM (inactive) | > 100 µM (inactive) | > 100 µM (inactive) | > 100 µM (inactive) | > 100 µM (inactive) | > 100 µM (inactive) | > 100 µM (inactive) | > 100 µM (inactive) | > 100 µM (inactive) | > 100 µM (inactive) | – | –
2 | COc1c(-c2ccc3c(c2)OCO3)oc2cc3c(c(OC)c2c1=O)OCO3 [MELITERNATIN] | 28.5 µM (inactive) | 17.6 µM (inactive) | 16.2 µM (inactive) | 30.8 µM | 23.9 µM (inactive) | 22.3 µM (inactive) | 14.2 µM (inactive) | 14.4 µM (inactive) | 25.5 µM (inactive) | 18.4 µM (inactive) | 30.8 µM (inactive) | 18.3 µM (inactive) | 38.5 µM (inactive) | 16.3 µM (inactive) | 19.6 µM (inactive) | 31.1 µM (inactive) | 38.1 µM (inactive) | 24.5 µM (inactive) | –
3 | CC(=O)O[C@H]1C[C@@H](OC(C)=O)[C@@](C)(O)[C@@H]2[C@@H](OC(C)=O)[C@@]3(O)[C@H](/C=C(/CCl)[C@H]4O[C@H]4[C@@H](OC(C)=O)[C@@]12C)OC(=O)[C@@H]3C | 19.8 µM (inactive) | 19.7 µM (inactive) | > 25 µM (inactive) | > 25 µM | > 25 µM (inactive) | > 25 µM (inactive) | > 25 µM (inactive) | > 25 µM (inactive) | > 25 µM (inactive) | – | 18.5 µM (inactive) | > 25 µM (inactive) | > 25 µM (inactive) | > 25 µM (inactive) | > 25 µM (inactive) | > 25 µM (inactive) | 17.4 µM (inactive) | > 25 µM (inactive) | –
4 | CN(C)C(C1=C(O)C(c2ccccc2)N(c2ccccc2)C1=O)N1CCOCC1 (configuration not stated) | > 10 µM (inactive) | > 10 µM (inactive) | > 10 µM (inactive) | > 10 µM | > 10 µM (inactive) | > 10 µM (inactive) | > 10 µM (inactive) | > 10 µM (inactive) | > 10 µM (inactive) | > 10 µM (inactive) | > 10 µM (inactive) | > 10 µM (inactive) | > 10 µM (inactive) | > 10 µM (inactive) | > 10 µM (inactive) | > 10 µM (inactive) | > 10 µM (inactive) | > 10 µM (inactive) | –
5 | CCOC(=O)c1cc(-c2ccc([N+](=O)[O-])cc2)c([N+](=O)[O-])[nH]1 | 2.18 µM (inactive) | 2.75 µM (inactive) | 2.33 µM (inactive) | 2.9 µM | 3.03 µM (inactive) | 3.28 µM (inactive) | 4.53 µM (inactive) | 2.26 µM (inactive) | 4.22 µM (inactive) | – | 2.6 µM (inactive) | > 10 µM (inactive) | 1.6 µM (inactive) | > 10 µM (inactive) | 2.72 µM (inactive) | 3.34 µM (inactive) | – | 2.51 µM (inactive) | 1.76 µM (inactive)
6 | COC(=O)C1(O)C(c2ccccc2)NC2(C)CCCC21 (configuration not stated) | > 100 µM (inactive) | > 100 µM (inactive) | > 100 µM (inactive) | > 100 µM | > 100 µM (inactive) | > 100 µM (inactive) | > 100 µM (inactive) | – | > 100 µM (inactive) | > 100 µM (inactive) | > 100 µM (inactive) | > 100 µM (inactive) | > 100 µM (inactive) | > 100 µM (inactive) | > 100 µM (inactive) | > 100 µM (inactive) | > 100 µM (inactive) | – | –
7 | N#CCCCCC12C3C(=O)N(c4ccccc4)C(=O)C3ON1O[C@@H]1C(=O)N(c3ccccc3)C(=O)[C@@H]12 (some centres not stated) | – | > 100 µM (inactive) | > 100 µM (inactive) | > 100 µM | > 100 µM (inactive) | > 100 µM (inactive) | > 100 µM (inactive) | > 100 µM (inactive) | > 100 µM (inactive) | > 100 µM (inactive) | > 100 µM (inactive) | > 100 µM (inactive) | > 100 µM (inactive) | – | – | > 100 µM (inactive) | > 100 µM (inactive) | > 100 µM (inactive) | –
8 | O=C1C(C(c2ccccc2)N2CCOCC2)=C(O)C(c2ccccc2)N1c1ccccc1 (configuration not stated) | > 10 µM (inactive) | > 10 µM (inactive) | > 10 µM (inactive) | > 10 µM | > 10 µM (inactive) | > 10 µM (inactive) | > 10 µM (inactive) | > 10 µM (inactive) | > 10 µM (inactive) | > 10 µM (inactive) | > 10 µM (inactive) | > 10 µM (inactive) | > 10 µM (inactive) | 3.58 µM (inactive) | > 10 µM (inactive) | > 10 µM (inactive) | > 10 µM (inactive) | > 10 µM (inactive) | –
9 | O=C(Nc1ccccc1)OCCN=C1c2ccccc2C(Br)C(Br)c2ccccc21 (configuration not stated) | 3.93 µM (inactive) | 7.93 µM (inactive) | 8.69 µM (inactive) | 3.85 µM | 11 µM (inactive) | 10.2 µM (inactive) | 10.5 µM (inactive) | 12.1 µM (inactive) | 4.48 µM (inactive) | 5.68 µM (inactive) | 1.49 µM (inactive) | 15.7 µM (inactive) | 6.59 µM (inactive) | 13.3 µM (inactive) | 22.2 µM (inactive) | 12.4 µM (inactive) | 9.06 µM (inactive) | 10 µM (inactive) | –
10 | CCNc1nc(N)c(C(=O)c2ccc(Cl)cc2)s1 | 22 µM (inactive) | 32.2 µM (inactive) | 33 µM (inactive) | 26.9 µM | 45.5 µM (inactive) | 23.7 µM (inactive) | 30.7 µM (inactive) | 18.8 µM (inactive) | 14.3 µM (inactive) | 28.6 µM (inactive) | 5.75 µM (inactive) | 29.9 µM (inactive) | 71 µM (inactive) | – | 41.7 µM (inactive) | 4.86 µM (inactive) | 76.6 µM (inactive) | 4.52 µM (inactive) | –
11 | COc1c2c(c3c(c1OC)c(=O)c1ccccc1n3C)OCO2 | – | > 100 µM (inactive) | > 100 µM (inactive) | > 100 µM | > 100 µM (inactive) | > 100 µM (inactive) | > 100 µM (inactive) | 36.1 µM (inactive) | > 100 µM (inactive) | > 100 µM (inactive) | > 100 µM (inactive) | > 100 µM (inactive) | > 100 µM (inactive) | > 100 µM (inactive) | > 100 µM (inactive) | > 100 µM (inactive) | > 100 µM (inactive) | 45.2 µM (inactive) | > 100 µM (inactive)
12 | C=C1C(=O)C([Si](C)(C)C)=C2C=C(C)C3(CC3)C12C (configuration not stated) | 15.3 µM (inactive) | 12.9 µM (inactive) | > 100 µM (inactive) | 35.8 µM | 14.7 µM (inactive) | 61.1 µM (inactive) | 53.2 µM (inactive) | 47.6 µM (inactive) | 67.1 µM (inactive) | 18.6 µM (inactive) | 1.19 µM (inactive) | – | 17.9 µM (inactive) | – | 15.6 µM (inactive) | 41.5 µM (inactive) | 58.1 µM (inactive) | 4.69 µM (inactive) | 0.0279 µM (active)
13 | CCCCCC(=O)OCC1(CO)C/C(=C/CC(C(C)C)C(C)C)C(=O)O1 (configuration not stated) | > 75 µM (inactive) | 21.8 µM (inactive) | 52.6 µM (inactive) | 73.1 µM | > 75 µM (inactive) | 58.5 µM (inactive) | > 75 µM (inactive) | 24.8 µM (inactive) | > 75 µM (inactive) | 40.9 µM (inactive) | 16.1 µM (inactive) | > 75 µM (inactive) | > 75 µM (inactive) | 74 µM (inactive) | > 75 µM (inactive) | 33.3 µM (inactive) | > 75 µM (inactive) | > 75 µM (inactive) | –
14 | Cc1ccc(C(=O)NN=C(/N=N/c2cccc(C)c2)c2ccc(N(C)C)cc2)cc1 | – | > 100 µM (inactive) | 2.82 µM (inactive) | > 100 µM | > 100 µM (inactive) | > 100 µM (inactive) | > 100 µM (inactive) | > 100 µM (inactive) | > 100 µM (inactive) | > 100 µM (inactive) | > 100 µM (inactive) | 64 µM (inactive) | > 100 µM (inactive) | – | > 100 µM (inactive) | > 100 µM (inactive) | > 100 µM (inactive) | > 100 µM (inactive) | > 100 µM (inactive)
15 | CC(=O)Oc1ccc2c(c1)oc1c3ccc(OC(C)=O)cc3n(C)c(=O)c21 | 38.7 µM (inactive) | 37.8 µM (inactive) | 34.8 µM (inactive) | 36.5 µM | 34.8 µM (inactive) | 37.4 µM (inactive) | 12.5 µM (inactive) | 36.3 µM (inactive) | 70.8 µM (inactive) | 35.6 µM (inactive) | 18.3 µM (inactive) | 14.8 µM (inactive) | 21.9 µM (inactive) | 1.14 µM (inactive) | – | 4.48 µM (inactive) | 16.3 µM (inactive) | 13.2 µM (inactive) | 33.5 µM (inactive)
16 | CCC1OC2C(CC=C(C)C)=C3OC(C)(O)C(C)(CC)C(OC(C)=O)C3=C3OC(=O)C=C1C32 (configuration not stated) | – | 21.3 µM (inactive) | 37.8 µM (inactive) | 37 µM | 18.8 µM (inactive) | 39.6 µM (inactive) | 31.4 µM (inactive) | 30.9 µM (inactive) | 34.4 µM (inactive) | 30.1 µM (inactive) | 36 µM (inactive) | 33.6 µM (inactive) | 22.2 µM (inactive) | 23.6 µM (inactive) | 19.9 µM (inactive) | 39.7 µM (inactive) | 24.7 µM (inactive) | 33.3 µM (inactive) | 31.8 µM (inactive)
